US20250340563A1, “FUSED PYRIDAZINE DERIVATIVES AS NLRP3 INHIBITORS” (Takeda Pharmaceutical Company Limited, priority 2022, published 2025)

Experiments:
MDR1 (P-gp) = molecular target: T1, MDR1 (P-gp) (Homo sapiens, UniProt P08183); assay: MDCK-MDR1 assay (apparent permeability and efflux ratio); type: in vitro ADME; conditions: dog; for efflux ratio at 60 min, 1 µM: pH 7.4, MDCK-MDR1, P-gp mediated efflux ratio, read-out: MDR1 ER; for Papp A→B at 60 min, 1 µM: MDCK-MDR1 monolayer, apical to basolateral, pH 7.4, 60 minutes
T1 construct: expressed in transfected cells; host or cells: Madin-Darby Canine Kidney (MDCK) cells
T1 sequence (P08183 whole entry, species assumed): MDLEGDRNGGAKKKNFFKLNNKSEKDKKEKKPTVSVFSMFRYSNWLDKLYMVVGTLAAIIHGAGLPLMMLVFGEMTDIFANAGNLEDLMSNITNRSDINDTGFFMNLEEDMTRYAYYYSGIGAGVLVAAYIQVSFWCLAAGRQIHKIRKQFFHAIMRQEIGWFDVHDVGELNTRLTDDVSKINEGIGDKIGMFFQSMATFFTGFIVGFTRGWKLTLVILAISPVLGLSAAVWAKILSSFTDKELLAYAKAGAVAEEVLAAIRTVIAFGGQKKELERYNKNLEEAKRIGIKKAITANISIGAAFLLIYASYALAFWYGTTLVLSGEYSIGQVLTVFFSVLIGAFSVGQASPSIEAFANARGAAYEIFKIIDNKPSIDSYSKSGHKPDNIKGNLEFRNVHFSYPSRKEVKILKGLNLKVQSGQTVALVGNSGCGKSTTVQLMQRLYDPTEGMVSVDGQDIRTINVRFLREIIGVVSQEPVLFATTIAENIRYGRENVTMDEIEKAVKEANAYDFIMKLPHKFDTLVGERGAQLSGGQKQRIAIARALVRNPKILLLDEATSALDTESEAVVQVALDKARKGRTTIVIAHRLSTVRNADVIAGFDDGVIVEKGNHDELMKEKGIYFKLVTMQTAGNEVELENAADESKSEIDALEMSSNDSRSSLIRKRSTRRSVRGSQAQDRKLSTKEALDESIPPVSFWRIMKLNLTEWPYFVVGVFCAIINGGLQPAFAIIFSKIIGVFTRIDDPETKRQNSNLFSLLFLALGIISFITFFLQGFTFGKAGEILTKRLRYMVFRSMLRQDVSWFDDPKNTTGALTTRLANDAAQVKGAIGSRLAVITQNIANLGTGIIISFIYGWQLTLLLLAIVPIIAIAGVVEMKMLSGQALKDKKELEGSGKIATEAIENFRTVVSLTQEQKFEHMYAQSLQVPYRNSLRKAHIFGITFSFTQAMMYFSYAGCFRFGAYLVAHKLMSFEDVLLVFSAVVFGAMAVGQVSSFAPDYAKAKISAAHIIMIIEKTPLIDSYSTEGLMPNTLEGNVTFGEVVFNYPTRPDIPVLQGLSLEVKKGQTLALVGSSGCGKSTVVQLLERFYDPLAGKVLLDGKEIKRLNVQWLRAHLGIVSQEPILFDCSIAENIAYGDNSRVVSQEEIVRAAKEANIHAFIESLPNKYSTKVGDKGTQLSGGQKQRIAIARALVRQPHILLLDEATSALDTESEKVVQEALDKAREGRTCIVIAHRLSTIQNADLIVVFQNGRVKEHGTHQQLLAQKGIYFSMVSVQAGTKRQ
Experimental: Madine-Darby Canine Kidney (MDCK) cells transfected with Multidrug resistance protein 1 (MDR1) are maintained in accordance with the provider's instructions in Dulbecco's Modified Eagle media (DMEM, Fisher Scientific Cat #10569044). DMEM is supplemented with 10% heat inactivated fetal bovine serum (Gibco Cat #16000-044), Penicillin-Streptomycin (100 units/mL) (Gibco Cat #15140122) and an inducer of P-gp, colchicine (200 nM) (Sigma Cat #C9754). The cells are seeded onto the apical side of HTS-Transwell-96 Plates (0.4 μm pore size, Corning Cat #3381) at a density of 6.25×10^3 cells per well with 75 μL and 250 μL of DMEM media in apical and basolateral wells, respectively, and are incubated at 37° C./5% CO2. Fresh DMEM media is exchanged in the apical and basolateral compartments after 72 hours and cells are allowed to grow into a monolayer for 144 hours before beginning the experimental incubation. Incubations are performed in Hanks' Balanced Salt Solution (HBSS, Fisher Scientific Cat #14025134) at pH 7.4 with 1% Bovine Serum Albumin (Sigma, Cat #A9418) and 10 mM HEPES (Fisher Scientific, Cat #15630080). DMEM media is removed and cells are rinsed with warm (37° C.) HBSS. HBSS with test compound at 1p M substrate concentration (0.1% v/v DMSO) is added to either the apical or basolateral compartment (75 μL or 250 μL, respectively) and blank HBSS buffer is added to the compartment which lacks test compound in singlicate. The cells are incubated for 60 minutes at 37° C./5% CO2. At the end of the incubation period, 50 μL of sample is removed from each receiver compartment and diluted into 150 μL of acetonitrile (Fisher Scientific, Cat #A996SK4)+0.1% formic acid (Sigma, Cat #F0507). The samples are centrifuged at 2000 rcf for 10 minutes at 4° C., after which 100 μL of supernatant is transferred to a new microplate and diluted with 100 μL of HPLC grade water (Fisher Scientific, Cat #W64). Samples are analyzed using a triple quadrupole mass spectrometer API-5500QTrap (ABSciex, Serial No. AU23291006) along with associated autosampler and high performance liquid chromatography pump instrumentation optimized for the detection of test articles through a Kinetix 2.1×50 mm C18 100 Å column (Phenomenex, Cat #00B-4605-AN).
Apparent permeability (Papp) values and efflux ratio are calculated using the following equations: […]

NF-κB pathway = assay: TNF-α assay in IFN-γ-differentiated, LPS-stimulated THP-1 cells (ELISA); type: cell-based; conditions: Homo sapiens, 50 ng/mL LPS, 3 hours
Procedure, shortened: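 THP-1 cells differentiated with 25 ng/mL IFN-γ for 24 h, then preincubated 30 min at 37 °C with compound (1:3.16 serial dilutions) in serum-free medium. Stimulated with 50 ng/mL LPS for 3 h; supernatant assayed by human TNF-α ELISA. IC50 from four-parameter logistic fit of % inhibition.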

NLRP3 inflammasome = NLRP3 inflammasome (Homo sapiens, UniProt Q96P20); assay: IL-1β assay in IFN-γ-differentiated, LPS-primed, ATP-activated THP-1 cells (ELISA); type: cell-based; conditions: 50 ng/mL LPS priming, 2.5 mM ATP activation, 2 hours
Sequence of NLRP3 inflammasome (Q96P20 whole entry): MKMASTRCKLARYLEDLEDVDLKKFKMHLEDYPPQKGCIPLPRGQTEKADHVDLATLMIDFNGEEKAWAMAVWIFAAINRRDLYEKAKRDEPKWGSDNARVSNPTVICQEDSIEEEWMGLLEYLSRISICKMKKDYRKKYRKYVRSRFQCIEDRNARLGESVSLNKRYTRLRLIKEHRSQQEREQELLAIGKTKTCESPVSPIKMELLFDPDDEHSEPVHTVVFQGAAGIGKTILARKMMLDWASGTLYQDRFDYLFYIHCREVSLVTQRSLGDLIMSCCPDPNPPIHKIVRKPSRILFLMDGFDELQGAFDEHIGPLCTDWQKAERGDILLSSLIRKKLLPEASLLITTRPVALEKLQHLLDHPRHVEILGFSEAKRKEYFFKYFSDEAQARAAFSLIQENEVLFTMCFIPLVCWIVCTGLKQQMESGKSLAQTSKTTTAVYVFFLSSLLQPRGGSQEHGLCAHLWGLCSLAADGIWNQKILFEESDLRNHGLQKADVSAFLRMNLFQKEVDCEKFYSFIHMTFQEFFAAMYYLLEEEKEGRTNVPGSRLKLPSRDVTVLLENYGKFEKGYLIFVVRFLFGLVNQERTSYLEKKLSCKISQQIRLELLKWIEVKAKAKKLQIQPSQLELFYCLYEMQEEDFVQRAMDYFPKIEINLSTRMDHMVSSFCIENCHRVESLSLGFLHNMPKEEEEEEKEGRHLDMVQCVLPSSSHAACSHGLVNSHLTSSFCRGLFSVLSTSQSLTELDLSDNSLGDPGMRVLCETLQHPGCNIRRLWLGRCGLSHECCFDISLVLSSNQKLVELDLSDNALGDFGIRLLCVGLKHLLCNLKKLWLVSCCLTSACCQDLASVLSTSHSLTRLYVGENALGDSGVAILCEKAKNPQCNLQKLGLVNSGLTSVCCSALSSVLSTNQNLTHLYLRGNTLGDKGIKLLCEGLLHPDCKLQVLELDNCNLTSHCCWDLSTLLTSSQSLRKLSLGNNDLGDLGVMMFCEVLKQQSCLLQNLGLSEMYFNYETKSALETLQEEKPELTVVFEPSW
Procedure, shortened: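 THP-1 cells differentiated with 25 ng/mL IFN-γ for 24 h, then primed with 50 ng/mL LPS for 24 h in serum-free medium. After 30 min compound preincubation (1:3.16 dilution series), inflammasome activated with 2.5 mM ATP for 2 h at 37 °C. Supernatant IL-1β measured by ELISA; IC50 from logistic fit of % inhibition.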

efflux ratio at 60 min, 1 µM (MDR1 (P-gp)) | Papp A→B at 60 min, 1 µM (MDR1 (P-gp)) [×10⁻⁶ cm/s] | IC50 (NF-κB pathway) [nM] | IC50 (NLRP3 inflammasome) [nM] | Compound
25 | 2 | > 30000 | 155 | COCCN1CCC[C@@H](Nc2nnc(-c3ccc(C)cc3O)c3c2COCC3)C1 [Example 233, (R)-2-(4-((1-(2-methoxyethyl)piperidin-3-yl)amino)-7,8-dihydro-5H-pyrano[3,4-d]pyridazin-1-yl)-5-methylphenol]
12 | 1.5 | > 30000 | 6 | CN1C[C@H](F)C[C@@H](Nc2nnc(-c3ccc(C(F)(F)F)cc3O)c3c2COCC3)C1 [Example 234, 2-(4-(((3R,5R)-5-fluoro-1-methylpiperidin-3-yl)amino)-7,8-dihydro-5H-pyrano[3,4-d]pyridazin-1-yl)-5-(trifluoromethyl)phenol]
10 | 2.2 | > 30000 | 7 | CN1C[C@H](F)C[C@@H](Nc2nnc(-c3ccc(OC(F)(F)F)cc3O)c3c2COCC3)C1 [Example 236, 2-(4-(((3R,5R)-5-fluoro-1-methylpiperidin-3-yl)amino)-7,8-dihydro-5H-pyrano[3,4-d]pyridazin-1-yl)-5-(trifluoromethoxy)phenol]
10 | 1.6 | > 30000 | 11 | COc1ccc(-c2nnc(N[C@@H]3C[C@@H](F)CN(C)C3)c3c2CCOC3)c(O)c1 [Example 237, 2-(4-(((3R,5R)-5-fluoro-1-methylpiperidin-3-yl)amino)-7,8-dihydro-5H-pyrano[3,4-d]pyridazin-1-yl)-5-methoxyphenol]
41 | 0.6 | > 30000 | 5 | CN1C[C@H](F)C[C@@H](Nc2nnc(-c3ccc(C4CC4)cc3O)c3c2COCC3)C1 [Example 238, 5-cyclopropyl-2-(4-(((3R,5R)-5-fluoro-1-methylpiperidin-3-yl)amino)-7,8-dihydro-5H-pyrano[3,4-d]pyridazin-1-yl)phenol]

The remaining lines, values behind:

Compound | efflux ratio at 60 min, 1 µM (MDR1 (P-gp)) | Papp A→B at 60 min, 1 µM (MDR1 (P-gp)) [×10⁻⁶ cm/s] | IC50 (NF-κB pathway) [nM] | IC50 (NLRP3 inflammasome) [nM]
Cc1ccc(-c2nnc(N[C@@H]3CCCC[C@H]3O)c3c2CCOC3)c(O)c1 [Example 229, 2-(4-(((1R,2R)-2-hydroxycyclohexyl)amino)-7,8-dihydro-5H-pyrano[3,4-d]pyridazin-1-yl)-5-methylphenol] | 6 | 1 | > 10000 | 36
Cc1ccc(-c2nnc(N[C@@H]3CCCC[C@H]3O)c3c2COCC3)c(O)c1 [Example 230, 2-(1-(((1R,2R)-2-hydroxycyclohexyl)amino)-7,8-dihydro-5H-pyrano[3,4-d]pyridazin-4-yl)-5-methylphenol] | 7 | 1.3 | > 10000 | 121
CN1C[C@H](F)C[C@@H](Nc2nnc(-c3ccc(C(F)F)cc3O)c3c2COCC3)C1 [Example 239, 5-(difluoromethyl)-2-(4-(((3R,5R)-5-fluoro-1-methylpiperidin-3-yl)amino)-7,8-dihydro-5H-pyrano[3,4-d]pyridazin-1-yl)phenol] | 39 | 1.2 | > 30000 | 11
